One series relates to tumor. The conditions noted are these: Muller et al 2005; cited from earlier work.
Series [1] relates to CD4 positive helper T cells. In words: Proliferation of helper T cells activated with CD3/CD28 antibodies (CFSE). It is filed as cell-based. The conditions noted are these: 3HAA 100 μM, 96 hours. As for the experimental part:
FIG. 21: Suppression of anti-proliferative properties of 3HAA on helper T cells by a 3HAA monoclonal antibody (1B10). CD4 positive T cells were activated by anti CD3/CD28 antibodies cocktail and incubated for 96 hours with either vehicle, 3HAA at 100 μM or 3HAA (100 μM)+IgG anti 3HAA.
We evaluated the ability of the selected anti 3HAA antibody to block the suppressive effect of 3HAA on helper T cells activated with CD3/CD28 cocktail antibodies. Helper T cells were incubated with or without 3HAA and stained with CFSE (carboxyfluorescein succinimidyl ester). […] The selected anti 3HAA antibody is therefore able to inhibit, in vitro, the suppressive effect of 3HAA, e.g. on helper T cells.

The next series deals with IDO (Homo sapiens, UniProt P14902). The settings on record: Pilotte et al 2012; cited from earlier work.
Sequence of IDO (P14902 whole entry, species assumed): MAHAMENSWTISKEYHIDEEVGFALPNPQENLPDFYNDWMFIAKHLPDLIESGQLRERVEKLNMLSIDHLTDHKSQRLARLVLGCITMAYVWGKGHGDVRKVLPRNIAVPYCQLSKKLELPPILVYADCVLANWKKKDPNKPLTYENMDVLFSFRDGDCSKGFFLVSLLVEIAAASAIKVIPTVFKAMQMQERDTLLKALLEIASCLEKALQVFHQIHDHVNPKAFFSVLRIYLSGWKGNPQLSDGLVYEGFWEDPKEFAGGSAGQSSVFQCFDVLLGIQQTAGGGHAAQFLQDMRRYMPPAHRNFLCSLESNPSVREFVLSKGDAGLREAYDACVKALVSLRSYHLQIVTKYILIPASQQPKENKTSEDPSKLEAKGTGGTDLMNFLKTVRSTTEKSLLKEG
The conditions of series [2]: Pilotte et al 2012; cited from earlier work.
In the next series the test system is mastocytoma. The settings on record: Pilotte et al 2012; cited from earlier work.

Results on three compounds are retold here after US20150175712A1, “ANTAGONIST TO AN ENZYME AND/OR A METABOLITE OF THE KYNURENINE PATHWAY” (ImmuSmol SAS, priority 2012, published 2015).

Each structure is given as a SMILES string. Entries after “also recorded” stand apart in the source; their conditions may differ.

On to `Cn1cc(C[C@H](N)C(=O)O)c2ccccc21` [Clone 1MT, 1-Methyl Tryptophan], for which the “anti-tumor benefits when administered alone” value with tumor is listed as “weak”.

`Nc1c(O)cccc1C(=O)O` [Clone 3HAA, 3-Hydroxy Anthranilic Acid]: in series [1], the “Effect of 3HAA on proliferation of activated helper T cells” value is listed as “blocked cell proliferation; also recorded: anergy of T cells was induced”.

As to `Fc1ccc2c(/C=C/c3nnn[nH]3)c[nH]c2c1` [LM-10, trans-6-Fluoro-3-[2-(1H-tetrazol-5-yl)vinyl]-1H-indole], at IDO, the IDO inhibition result is listed as “does not inhibit”. Further, the “solubility compared to 1MT” value in series [2] is listed as “higher”. In addition, in the series on mastocytoma, the “benefits in experimental model of mastocytoma” value is recorded as “benefits”.
